The source of these data is paper PMC9391460, “Biophysical and pharmacokinetic characterization of a small-molecule inhibitor of RUNX1/ETO tetramerization with anti-leukemic effects” (Scientific Reports, 2022).

Like-named read-outs stand apart in the source and are kept apart here.

For data set [1] the following is noted: Peff in cm sec-1 from PAMPA assays; ref Bennion, Be [13]; cited from earlier work. A general note: In PAMPA a lipid-coated filter parts donor from acceptor wells.
Another data set concerns the target T1, NHR2 (Homo sapiens, UniProt Q06455).
T1 construct: The N-terminal residues from Q485 to D495, T519, and the C-terminal residues from Y544 to K552; 6His (N, cleaved yes); SUMO (N, cleaved yes); made in house; host or cells: E. coli Rosetta (DE3)pLysS
T1 sequence (Q06455 337-404): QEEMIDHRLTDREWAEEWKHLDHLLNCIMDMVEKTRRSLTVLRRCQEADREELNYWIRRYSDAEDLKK
Put plainly: Isothermal titration calorimetry (ITC) of HEB fragment with NHR2. As to conditions: 25°C, one-site binding model. As for the experimental part:
The NHR2 domain was overexpressed and purified, and the resulting material yielded homogeneous, monodisperse species in solution. The sample was homogenous as analyzed by size exclusion chromatography (SEC) (Fig. 2A), SDS-PAGE (Fig. S1), and dynamic light scattering (DLS) (Fig. S3). The oligomeric state of purified NHR2 was assessed by analytical ultracentrifugation (AUC) (Fig. S4). The sedimentation profiles of NHR2 show a single major species with a sedimentation coefficient (S value) of 3.07, which corresponds to the molecular weight of 37.3 kDa. This value is in agreement with the calculated molecular weight of an NHR2 tetramer of 34.2 kDa. […] The weight percent contribution of the tetramer in 35 µM of NHR2 is 94% as obtained by integration of the continuous sedimentation coefficient distribution function. To check the function of the purified NHR2, we performed isothermal titration calorimetry (ITC) with the HEB fragment of E proteins (HEB (176–200)).
Figure S5. NHR2 interaction with E proteins (HEB (176-200)) by isothermal titration calorimetry (ITC). Titration of
600 μM HEB (176-200) peptide into a 53 μM NHR2 solution and resulting heat change are shown in the upper panel. The
ITC measurements were performed at 25°C using a MicroCal ITC200 (Malvern Instruments Ltd., United Kingdom)
calorimeter. Buffer conditions were 50 mM sodium phosphate, 50 mM sodium chloride pH 8. […]
(In general: In ITC the heat of successive injections is recorded.)

The nature of data set [2]: Kinetic solubility in PBS. The data set is classed as physicochemical. As to conditions: kinetic from dmso stock.
Procedure: in a cut-off concentration of 200 µM and a final solvent content of 1% DMSO. The test
solutions (triplicates) were put on a filter plate and were shaken protected from light at 300 rpm
at room temperature for 1.5 hours, followed by centrifugation at 500 x g for 3 minutes. 200 µl
of the filtrate were mixed with 100 µl ACN containing the ISTD as described in Sample
Data set [3] is described as follows: Chemical stability in PBS. The data set is classed as physicochemical. As to conditions: pH 7.4, 0–4 h. The method, then:
(§1) For plasma stability assay, working solutions of the test and reference item were diluted f r o m the stock solutions in the appropriate solvent (Table S3) to reach working solutions of 50-fold […]
(§2) and propantheline (reference item for low plasma stability) were tested at a final concentration of 10 µM. The final solvent content in the test item incubations was 0.5% DMSO, while in the propantheline incubations, no organic solvent was added.
(§3) For chemical stability assay, working solutions of the test and reference items were diluted from the stock solutions in the appropriate solvent (Table S3) to reach working solutions of 50- […]
(§4) item and Omeprazole (reference item for low chemical stability) were tested at a final concentration of 10 µM. The final solvent content in the test item incubations was 0.5% DMSO.
(§5) For the hepatic stability assay, working solutions of the test and reference items were diluted from the stock solutions in the appropriate solvent (Table S3) to reach working solutions of a 200-fold higher strength than the intended final concentrations. In a second step, working solutions were further diluted in incubation medium to reach 10-fold concentrated starting

The nature of data set [4]: pKa value determination by 1H NMR. The data set is classed as physicochemical. As for the experimental part:
Sodium 2,2-dimethyl-2-silapentane-5-sulfonate (DSS) was used for chemical shift referencing and calibrated to a zero ppm value in each case. […] Then the pKa was calculated by using the chemical shifts of the protonated and unprotonated forms at the respective pH and fitting to the Henderson-Hasselbalch equation[25] (Fig. 6B).
1D ^1H-NMR experiments were performed using 256 scans for each sample. ^1H chemical shift values were extracted for the reporter protons using TopSpin 3.2 (Bruker BioSpin). The pKa was calculated using the chemical shifts of the protonated and unprotonated forms and their corresponding mole fraction values applying the Henderson-Hasselbalch equation as explained by Gift et al.[25]. The data were processed and plotted with the Origin software (OriginLab Corporation, USA).

Another data set can be described thus: Hepatocyte stability. The class given is in vitro ADME. Particulars: mouse hepatocytes.
A further data set is described as follows: Plasma stability. Particulars: mouse plasma, 0–240 min, 37 °C. The class given is in vitro ADME. As for the experimental part:
as §1, §2, §3, §4, §5

A further data set addresses T2, HEB 176-200 (Homo sapiens, UniProt Q99081).
T2 chain: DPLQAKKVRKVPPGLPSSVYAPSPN
Put plainly: ITC.

The data set “MST” deals with the molecule itself. Nature of the data set: MST.

Procedure for Hepatocyte stability: Working solutions of the test and reference items were diluted from the stock solutions in the
incubation medium to reach 10-fold concentrated starting solutions. The final test
concentrations were 5 µM with a solvent content of 0.5% DMSO or 1% ACN in all test item
and reference item incubations, respectively. 7.44 compound was dissolved 20 mM in DMSO
Primary hepatocytes from CD-1 mice (pooled, male) were thawed
according to the instructions of the manufacturer. The incubation samples were composed of
0.2 x 10^6 cells/well in 225 µL incubation medium and 25 µL test item solution (50 µM in
incubation medium), resulting in a final start concentration of 5 µM. Samples were taken from
the suspension cultures after 0, 15, 30, 60, and 120 minutes of incubation and processed for LC-
MS analysis as described in Sample preparation section.
Positive control incubations were performed using 7-ethoxycoumarin as substrate. Metabolic
turnover rates were measured at 0 and 120 minutes of incubation. Aliquotes were taken from
the incubations for sample preparation and analysis. Hepatocyte enzyme activity was assessed
in terms of 7-ethoxycoumarin turnover, i.e., loss of 7-ethoxycoumarin.
Negative controls were performed to observe non-metabolic degradation processes; i.e. test
Negative control incubations were performed
in line with all experiments using incubation medium with test and reference item in the absence
of hepatocytes. Samples were taken from the incubations at 0 and 120 minutes and processed
as described below (in Sample preparation section).

As for `CC(=O)[C@H]1CC[C@H]2[C@@H]3CCC4=CC(=O)CC[C@]4(C)[C@H]3CC[C@]12C` [progesterone], in data set [1], the “log Peff/PAMPA P0-1” value is reported as -4.94.
Turning to “HEB (176–200): HEB fragment of E proteins, known to interact with the NHR2 domain (DPLQAKKVRKVPPGLPSSVYAPSPN; UniProt Q99081 176-200, looked up, fragment)”, the “binding enthalpy ΔH” value with NHR2 was -15 ± 6 kcal/mol. The Kd in the data set with NHR2 (read-out: dissociation constant KD) worked out at 30 ± 4 µM.
`CN(C)CCCN1c2ccccc2Sc2ccc(Cl)cc21` [chlorpromazine]: the “log Peff/PAMPA P0-1” value in data set [1] was -5.26.
As to `O=C(CC(C(=O)O)c1ccc2c(c1)OCO2)c1ccc2c(c1)OCO2` (stereo not drawn) [7.44], the kinetic solubility at […] amounted to 177 ± 8 µM in [2] (99% PBS, 1% DMSO, pH 7.4, aqueous buffer) and 60 µg/mL in [2] (PBS with 1% DMSO, aqueous buffer, PBS, pH 7.4, read-out: Kinetic solubility). Moreover, the “Chemical stability in PBS” value in data set [3] is reported as “No degradation”. The pKa in data set [4] (sodium phosphate buffer with NaCl and DMSO-d6, reporter proton H2, read-out: pKa of the carboxylic group) is 3.99 ± 0.01; in data set [4] (sodium phosphate buffer with NaCl and DMSO-d6, reporter proton H3, read-out: pKa of the carboxylic group), 3.93 ± 0.01; in [4] (sodium phosphate buffer with NaCl and DMSO-d6, summary value, read-out: pKa), approximately 3.9. The hepatocyte CLint at 5 µM in “Hepatocyte stability” (male, CD-1, primary hepatocytes (pooled, suspension), read-out: Hepatocyte stability, intrinsic clearance rate (CLint)) worked out at 2.5 µL/min/1e6 cells. Also, the half-life at 5 µM in the data set “Hepatocyte stability” (male, CD-1, primary hepatocytes (pooled, suspension), read-out: half-life time) was more than 120 min. For the same molecule, the compound remaining in the data set “Hepatocyte stability” (after 120 min) amounted to 73.8%. Further, the Plasma stability result in the data set “Plasma stability” is on record as “No degradation”.
On to `NC(=O)c1cc[n+](COC[n+]2ccccc2/C=N/O)cc1` [asoxime (HI-6), asoxime], for which the “log Peff/PAMPA P0-1” value in [1] is -11.16.
As to `Cn1c(=O)c2[nH]cnc2n(C)c1=O` [theophylline], the “log Peff/PAMPA P0-1” value in data set [1] is -5.91.
`O/N=C/c1cc[n+](C[n+]2ccc(/C=N/O)cc2)cc1` [methoxime (MMB4), methoxime]: the “log Peff/PAMPA P0-1” value in [1] is -9.25.
Take `CN(C)CCCN1c2ccccc2Sc2ccccc21` [promazine]: in [1], the “log Peff/PAMPA P0-1” value is given as -4.88.
As for `C[n+]1ccccc1/C=N/O` [pralidoxime (P2-PAM), pralidoxime], the “log Peff/PAMPA P0-1” value in data set [1] is recorded as -7.52.

B1: NHR2 domain of RUNX1/ETO 485-552 (protein)
chain: KMERTVAEAKRQAAEDALAVINQQEDSSESCWNCGRKASETCSGCNTARYCGSFCQHKDWEKHHHICG
Take B1: in the data set with HEB 176-200, the equilibrium dissociation constant (Kd) stood at 30 µM.

B2: NHR2 domain of RUNX1/ETO (dimer) 485-552 (protein)
chain: KMERTVAEAKRQAAEDALAVINQQEDSSESCWNCGRKASETCSGCNTARYCGSFCQHKDWEKHHHICG
B2 registered a Kd in the data set “MST” of 1600 nM.

The term Kd denotes the concentration at which binding is half-saturated. For orientation: solubility (kinetic) means the concentration staying in solution when a stock, usually in DMSO, is diluted into the medium. One may read the hepatocyte CLint as the capacity of the preparation to metabolise the compound, expressed as a volume cleared per time. Broadly, the half-life is the time needed for the level to fall by half in the phase considered.
